# Earlier results in EP2508186A1, “Phenoxazinones or phenothiazones as inhibitors of amyloid formation” (Max-Delbrück-Centrum für Molekulare Medizin, priority 2011, dated 2012).
# Biological target: T1, Aβ42 (Homo sapiens, UniProt P05067)
# T1 construct: the amyloid-β 1-42 (Aβ42) peptide
# Conditions: previous biochemical investigations; cited from earlier work
# T1 sequence (P05067 672-713 limits assumed): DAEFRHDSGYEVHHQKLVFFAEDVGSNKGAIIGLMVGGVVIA
smiles,measurement,value
CN(C)c1ccc2nc3ccc(=[N+](C)C)cc-3sc2c1 [methylene blue],effect on Aβ42 fibrillogenesis and A11-reactive oligomers,"promotes Aβ42 fibrillogenesis and thereby reduces the amount of A11-reactive, potentially toxic amyloid oligomers"
